Data reported in patent US9981909B2 (Janssen Pharmaceutica NV, priority 2008, dated 2018).

Key:
human SERT = human SERT (Homo sapiens (Human), UniProt P31645); experiment: human SERT binding assay with [3H]-citalopram on HEK-293 membranes; details: read-out: hSERT binding Ki
h5HT2C = h5HT2C (Homo sapiens (Human), UniProt P28335); experiment: h5HT2C binding
h5HT2B = h5HT2B (Homo sapiens (Human), UniProt P41595); experiment: h5HT2B binding
h5HT2A = h5HT2A (Homo sapiens (Human), UniProt P28223); experiment: h5HT2A binding
rat 5-HT7 receptor = rat 5-HT7 receptor (Rattus norvegicus (Rat), UniProt P32305); experiment: r5-HT7 binding assay, competitive radioligand binding with [3H]5-CT
Method in brief: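 Membranes from HEK-293 cells recombinantly expressing rat 5-HT7 were used for competitive radioligand binding with [3H]5-CT, with radioactivity read-out and Ki values derived. In the functional cAMP immunoassay, stably transfected HEK-293 cells were pre-incubated with compound for 10 minutes, challenged with 100 nM 5-CT for 20 minutes, then lysed.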

r5-HT7 receptor = r5-HT7 receptor (Rattus norvegicus (Rat), UniProt P32305); experiment: HitHunter cAMP assay, antagonist testing against 100 nM 5-CT; type: cell-based; details: antagonist testing, 100 nM 5-CT challenge, HEK-293 r5-HT7; read-out: R5HT7 cAMP pKb (converted)
Procedure: Receptor binding was performed using membrane fractions prepared from the HEK-293 cell line recombinantly expressing rat 5-HT7 receptors (NCBI accession NM_022938). Compound affinity for the rat 5-HT7 receptor subtype was evaluated by competitive radioligand binding assays using 5-carboxamido[^3H]tryptamine ([^3H]5-CT) (Amersham Biosciences, cat. 90000403) detection. HitHunter™ cAMP assays are in-vitro based competitive immunoassays. The assay was performed on the HEK-293 cell line stably transfected with r5-HT7 receptor. Cells were pre-incubated with test compounds for 10 minutes. For antagonist testing, the cells were then challenged with 100 nM 5-CT for 20 minutes. Cells were then lysed and cAMP measured according to manufacturers protocol (Amersham, cat. NET791250UC) or [^3H]mesulergine (Amersham, cat. TRK1041). The assay was performed on membranes prepared from HEK-293 cells stably transfected with h5-HT6. Following centrifugation, membranes were resuspended and incubated for 60 min at room temperature with 1.7 nM [^3H]LSD in the presence of increasing concentration of test compounds. Nonspecific binding was defined in the presence of 10 μM clozapine (Tocris, cat. TRK1068). Homogenized HEK-293 membranes expressing the human SERT were incubated in 50 mM Tris-HCl (pH 7.5), 120 mM NaCl, 5 mM KCl with [^3H]-citalopram (3 nM) with or without test compounds. Nonspecific binding was determined in the presence of 10 μM fluoxetine. Radioactivity readouts and Ki values were performed as previously described for r5-HT7. […] Compounds were assayed in their free form or as salts, as indicated in the Examples section above.

[1] = rat 5-HT7 receptor, HEK-293 membranes

Sequence of h5HT2C (P28335 33-458): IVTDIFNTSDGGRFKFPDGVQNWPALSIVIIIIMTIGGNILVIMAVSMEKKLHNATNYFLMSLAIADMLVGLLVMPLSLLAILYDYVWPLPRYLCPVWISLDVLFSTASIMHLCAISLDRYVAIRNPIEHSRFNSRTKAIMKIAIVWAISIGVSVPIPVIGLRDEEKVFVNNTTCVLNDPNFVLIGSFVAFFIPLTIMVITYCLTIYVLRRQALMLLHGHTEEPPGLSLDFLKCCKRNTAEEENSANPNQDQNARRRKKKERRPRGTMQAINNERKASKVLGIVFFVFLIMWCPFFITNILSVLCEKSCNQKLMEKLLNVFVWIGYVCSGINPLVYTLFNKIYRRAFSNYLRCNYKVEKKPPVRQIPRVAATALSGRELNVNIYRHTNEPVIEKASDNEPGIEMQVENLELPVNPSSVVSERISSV
Sequence of rat 5-HT7 receptor (P32305 1-435): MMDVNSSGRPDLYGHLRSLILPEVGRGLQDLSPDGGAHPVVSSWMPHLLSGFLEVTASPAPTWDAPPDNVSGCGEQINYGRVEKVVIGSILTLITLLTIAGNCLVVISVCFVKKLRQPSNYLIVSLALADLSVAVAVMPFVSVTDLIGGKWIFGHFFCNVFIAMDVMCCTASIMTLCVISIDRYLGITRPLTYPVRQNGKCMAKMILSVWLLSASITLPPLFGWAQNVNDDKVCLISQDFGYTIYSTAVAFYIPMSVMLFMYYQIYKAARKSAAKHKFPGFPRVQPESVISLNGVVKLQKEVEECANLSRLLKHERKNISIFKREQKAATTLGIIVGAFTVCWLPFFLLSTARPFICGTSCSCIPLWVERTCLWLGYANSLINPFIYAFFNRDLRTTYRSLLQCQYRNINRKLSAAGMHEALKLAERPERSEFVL
Sequence of r5-HT7 receptor (P32305 1-435): as above
Sequence of h5HT2B (P41595 whole entry): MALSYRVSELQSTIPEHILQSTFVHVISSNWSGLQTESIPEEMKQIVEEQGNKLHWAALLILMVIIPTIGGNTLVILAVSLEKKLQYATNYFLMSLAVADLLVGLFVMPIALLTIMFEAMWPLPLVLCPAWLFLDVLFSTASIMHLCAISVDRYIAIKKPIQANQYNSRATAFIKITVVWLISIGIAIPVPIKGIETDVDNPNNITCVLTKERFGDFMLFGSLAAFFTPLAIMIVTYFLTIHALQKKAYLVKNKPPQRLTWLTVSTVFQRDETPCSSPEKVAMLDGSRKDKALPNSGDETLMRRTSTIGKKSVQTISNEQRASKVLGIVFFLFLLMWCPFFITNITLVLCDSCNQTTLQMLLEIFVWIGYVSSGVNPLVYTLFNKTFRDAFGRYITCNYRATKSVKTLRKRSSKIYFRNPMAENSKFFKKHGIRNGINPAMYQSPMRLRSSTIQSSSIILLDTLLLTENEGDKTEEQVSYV
Sequence of h5HT2A (P28223 whole entry): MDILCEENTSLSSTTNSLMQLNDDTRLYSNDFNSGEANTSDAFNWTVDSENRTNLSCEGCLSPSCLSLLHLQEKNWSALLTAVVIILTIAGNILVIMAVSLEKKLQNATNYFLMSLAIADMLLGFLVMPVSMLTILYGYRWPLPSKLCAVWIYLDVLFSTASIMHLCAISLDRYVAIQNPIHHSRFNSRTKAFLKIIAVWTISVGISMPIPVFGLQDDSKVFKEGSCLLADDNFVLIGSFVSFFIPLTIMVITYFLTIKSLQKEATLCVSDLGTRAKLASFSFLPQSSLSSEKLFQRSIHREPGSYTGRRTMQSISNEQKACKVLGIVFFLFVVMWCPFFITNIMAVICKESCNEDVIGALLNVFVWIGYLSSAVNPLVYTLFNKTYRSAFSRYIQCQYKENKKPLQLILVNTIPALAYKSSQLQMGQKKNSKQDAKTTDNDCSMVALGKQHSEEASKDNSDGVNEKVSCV
Sequence of human SERT (P31645 whole entry): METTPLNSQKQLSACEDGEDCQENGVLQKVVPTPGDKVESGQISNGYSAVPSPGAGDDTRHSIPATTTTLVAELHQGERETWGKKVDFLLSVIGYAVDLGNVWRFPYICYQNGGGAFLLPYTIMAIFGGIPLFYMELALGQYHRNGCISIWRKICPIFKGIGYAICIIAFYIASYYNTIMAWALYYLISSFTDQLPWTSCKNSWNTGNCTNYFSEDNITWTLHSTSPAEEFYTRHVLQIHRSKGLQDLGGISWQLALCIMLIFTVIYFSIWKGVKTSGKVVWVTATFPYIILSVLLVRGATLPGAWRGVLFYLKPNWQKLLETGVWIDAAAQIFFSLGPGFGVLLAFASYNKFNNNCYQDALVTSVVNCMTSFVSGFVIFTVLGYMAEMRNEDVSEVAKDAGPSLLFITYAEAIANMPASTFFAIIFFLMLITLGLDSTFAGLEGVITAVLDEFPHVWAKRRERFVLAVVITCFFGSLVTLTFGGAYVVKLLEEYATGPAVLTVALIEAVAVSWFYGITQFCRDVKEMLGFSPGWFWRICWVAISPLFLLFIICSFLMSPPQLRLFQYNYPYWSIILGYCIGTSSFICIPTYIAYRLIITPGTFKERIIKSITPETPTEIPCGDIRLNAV

SMILES | Ki (h5HT2C) [nM] | Ki (h5HT2B) [nM] | Ki (h5HT2A) [nM] | Ki (rat 5-HT7 receptor; [1]) [nM] | Ki (human SERT) [nM] | Kb (r5-HT7 receptor) [nM] | Ki (rat 5-HT7 receptor; rat 5-HT7, HEK-293 membranes) [nM]
FC(F)(F)c1ccnc(COc2ccc(Cl)cc2OC2CNC2)c1 [Example 81, 2-[2-(Azetidin-3-yloxy)-4-chloro-phenoxymethyl]-4-trifluoromethyl-pyridine] | 590 | 367 | 76 | 97 | 1170 | – | –
Clc1ccc(O[C@@H]2CCNC2)c(OCc2ccccc2)c1 [Example 90, (R)-3-(2-Benzyloxy-4-chloro-phenoxy)-pyrrolidine] | 160 | 83 | 20 | 920 | – | – | –
CN1CC[C@@H](Oc2ccc(Cl)cc2OCc2ccccc2)C1 [Example 91, (R)-3-(2-Benzyloxy-4-chloro-phenoxy)-1-methyl-pyrrolidine] | 120 | 50 | 5 | 500 | – | – | –
CC(C)N1CC(Oc2cc(F)ccc2OCc2ccc(C(F)(F)F)o2)C1 [Example 209, 3-[5-Fluoro-2-(5-trifluoromethyl-furan-2-ylmethoxy)-phenoxy]-1-isopropyl-azetidine] | – | – | – | 13 | 20 | 20 | –
Clc1cccc(Oc2ccc(Br)cc2OC2CNC2)c1 [Example 252, 3-[5-Bromo-2-(3-chloro-phenoxy)-phenoxy]-azetidine] | – | – | – | – | 60 | 63.1 | 7
Clc1ccc(Oc2ccc3ccccc3c2)c(OC2CNC2)c1 [Example 260, 3-[5-Chloro-2-(naphthalen-2-yloxy)-phenoxy]-azetidine] | – | – | – | – | 2 | 1000 | 16
O=C(c1ccc2ccccc2c1)c1ccc(Br)cc1OC1CNC1 [Example 287, [2-(Azetidin-3-yloxy)-4-bromo-phenyl]-naphthalen-2-yl-methanone] | – | – | – | – | 14 | 63.1 | 15
O=C(c1ccc2c(c1)OCO2)c1ccc(Br)cc1OC1CNC1 [Example 289, [2-(Azetidin-3-yloxy)-4-bromo-phenyl]-benzo[1,3]dioxol-5-yl-methanone] | – | – | – | – | 437 | 39.8 | 34

Continued, in another order:

Ki (h5HT2C) [nM] | Ki (h5HT2B) [nM] | Ki (h5HT2A) [nM] | Ki (rat 5-HT7 receptor; [1]) [nM] | SMILES | Ki (human SERT) [nM] | Kb (r5-HT7 receptor) [nM] | Ki (rat 5-HT7 receptor; rat 5-HT7, HEK-293 membranes) [nM]
110 | 28 | 14 | 260 | Clc1cccc(COc2cc(Cl)ccc2O[C@@H]2CCNC2)c1 [Example 92, (R)-3-[4-Chloro-2-(3-chloro-benzyloxy)-phenoxy]-pyrrolidine] | – | – | –
51 | 13 | 3 | 140 | CN1CC[C@@H](Oc2ccc(Cl)cc2OCc2cccc(Cl)c2)C1 [Example 93, (R)-3-[4-Chloro-2-(3-chloro-benzyloxy)-phenoxy]-1-methyl-pyrrolidine] | – | – | –
69 | 250 | 32 | > 2500 | Clc1cccc(COc2cc(Cl)ccc2O[C@H]2CCNC2)c1 [Example 94, (S)-3-[4-Chloro-2-(3-chloro-benzyloxy)-phenoxy]-pyrrolidine] | – | – | –
181 | 30 | 24 | 33 | Clc1ccc(OC2CCc3ccccc3C2)c(OC2CNC2)c1 (centres unmarked) [Example 164, 3-[5-Chloro-2-(1,2,3,4-tetrahydro-naphthalen-2-yloxy)-phenoxy]-azetidine] | 8 | – | –
48 | 21 | 8 | 130 | COC(COc1ccc(Cl)cc1OC1CNC1)c1ccccc1 (centres unmarked) [Example 168, 3-[5-Chloro-2-(2-methoxy-2-phenyl-ethoxy)-phenoxy]-azetidine] | – | – | –
143 | 28 | 8 | 34 | Clc1ccc(C2(COc3ccc(Cl)cc3OC3CNC3)CCC2)cc1 [Example 188, 3-[5-Chloro-2-[1-(4-chloro-phenyl)-cyclobutylmethoxy]-phenoxy]-azetidine] | 65 | – | –
56 | 69 | 14 | 8 | COc1cccc(CCOc2ccc(Cl)cc2OC2CNC2)c1 [Example 190, 3-[5-Chloro-2-[2-(3-methoxy-phenyl)-ethoxy]-phenoxy]-azetidine] | 211 | – | –
